Earlier results on one compound are cited in patent publication US5223503A, “6-substituted pyrido[2,3-d]pyrimidines as antineoplastic agents” (Eli Lilly and Company, priority 1992, dated 1993).

For the data set, the system named is solid tumors. The note with it: Proc. Amer. Assoc. Cancer Res., 31, 1053 (1990).

With `Nc1nc2c(c(=O)[nH]1)CC(CCc1ccc(C(=O)N[C@@H](CCC(=O)O)C(=O)O)cc1)CN2` (stereo partly shown) [lometrexol, 5,10-dideazatetrahydrofolic acid], the “clinical efficacy against solid tumors” value was “clinical efficacy against solid tumors”.
